According to the supplement of paper PMC10307832:

Experiments:
Assay in all cases: relative viability (nuclei count vs DMSO), 5 days (fraction); higher = more cells survive
[1] = test system: NCI-H1355
How it was run: (§1)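 Relative viability divides the nuclei count in treated wells by that in vehicle wells. Lung cancer cell lines were seeded in 1536-well plates, dosed by pin tool the next day, and fixed and stained after 5 days in one step with final 0.05% Triton X-100, 1% formaldehyde and 1 ug/ml Hoechst. Dosing was a single drug or a fixed anchor-drug dose plus five library-drug doses (not always all listed) in √10 steps, and values are medians of duplicate plates imaged at 4×.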

[2] = test system: NCI-H1792
How it was run: as §1

[3] = test system: NCI-H1563
How it was run: as §1

[4] = test system: SK-MES-1
How it was run: as §1

[5] = test system: RERF-LC-KJ
How it was run: as §1

[6] = test system: NCI-H1915
How it was run: as §1

[7] = test system: SW 900
How it was run: as §1

[8] = test system: NCI-H727
How it was run: as §1

[9] = test system: NCI-H520
How it was run: as §1

[10] = test system: NCI-H661
How it was run: as §1

[11] = test system: NCI-H650
How it was run: as §1

[12] = test system: NCI-H522
How it was run: as §1

[13] = test system: LXF-289
How it was run: as §1

[14] = test system: NCI-H1755
How it was run: as §1

[15] = test system: NCI-H322M
How it was run: as §1

[16] = test system: NCI-H2347
How it was run: as §1

[17] = test system: NCI-H460
How it was run: as §1

[18] = test system: NCI-H441
How it was run: as §1

[19] = test system: NCI-H596
How it was run: as §1

[20] = test system: NCI-H1651
How it was run: as §1

[21] = test system: PC-14
How it was run: as §1

[22] = test system: NCI-H2170
How it was run: as §1

[23] = test system: NCI-H3122
How it was run: as §1

[24] = test system: LCLC-103H
How it was run: as §1

Question: Which relative viability ([1]; first compound 0.04 µM) does the source give for `C[C@@H]1CN(CC(=O)Nc2ccc3c(c2)Cc2cccc(-c4cc(=O)cc(N5CCOCC5)o4)c2S3)C[C@H](C)O1` + N=C(N)NC(=N)NCCc1ccccc1 [Phenformin] (partner 250 µM) here?
Answer: The relative viability was 0.455.

Question: What about the relative viability ([1]; first compound 0.1265 µM) of the same molecule?
Answer: Its relative viability is 0.482.

Question: What about the relative viability ([1]; first compound 0.4 µM) of the same molecule?
Answer: Its relative viability is 0.433.

Question: What about the relative viability ([1]; first compound 4 µM) of the same molecule?
Answer: The relative viability was 0.43.

Question: And the relative viability ([2]; first compound 0.04 µM)?
Answer: Its relative viability is 0.35.

Question: And the relative viability ([2]; first compound 0.4 µM)?
Answer: Its relative viability is 0.303.

Question: And the relative viability ([2]; first compound 4 µM)?
Answer: Its relative viability is 0.526.

Question: What about the relative viability ([3]; first compound 0.04 µM) of the same molecule?
Answer: Its relative viability is 0.692.

Question: What about the relative viability ([3]; first compound 0.1265 µM) of the same molecule?
Answer: Its relative viability is 0.636.

Question: What about the relative viability ([3]; first compound 0.4 µM) of the same molecule?
Answer: The relative viability was 0.659.

Question: What about the relative viability ([3]; first compound 4 µM) of the same molecule?
Answer: Its relative viability is 0.677.

Question: And the relative viability ([4]; first compound 0.04 µM)?
Answer: The relative viability was 0.723.

Question: What about the relative viability ([4]; first compound 0.1265 µM) of the same molecule?
Answer: Its relative viability is 0.652.

Question: And the relative viability ([4]; first compound 0.4 µM)?
Answer: Its relative viability is 0.665.

Question: And the relative viability ([4]; first compound 4 µM)?
Answer: The relative viability was 0.546.

Question: What about the relative viability ([5]; first compound 0.04 µM) of the same molecule?
Answer: The relative viability was 0.422.

Question: And the relative viability ([5]; first compound 0.1265 µM)?
Answer: Its relative viability is 0.368.

Question: What about the relative viability ([5]; first compound 0.4 µM) of the same molecule?
Answer: Its relative viability is 0.379.

Question: What about the relative viability ([5]; first compound 4 µM) of the same molecule?
Answer: The relative viability was 0.323.

Question: What about the relative viability ([6]; first compound 0.04 µM) of the same molecule?
Answer: Its relative viability is 0.379.

Question: And the relative viability ([6]; first compound 0.1265 µM)?
Answer: The relative viability was 0.388.

Question: And the relative viability ([6]; first compound 0.4 µM)?
Answer: Its relative viability is 0.382.

Question: What about the relative viability ([6]; first compound 4 µM) of the same molecule?
Answer: Its relative viability is 0.362.

Question: What about the relative viability ([7]; first compound 0.04 µM) of the same molecule?
Answer: Its relative viability is 0.466.

Question: What about the relative viability ([7]; first compound 0.1265 µM) of the same molecule?
Answer: Its relative viability is 0.724.

Question: What about the relative viability ([7]; first compound 0.4 µM) of the same molecule?
Answer: The relative viability was 0.669.

Question: And the relative viability ([7]; first compound 4 µM)?
Answer: The relative viability was 0.488.

Question: And the relative viability ([8]; first compound 0.04 µM)?
Answer: Its relative viability is 0.626.

Question: And the relative viability ([8]; first compound 0.1265 µM)?
Answer: The relative viability was 0.663.

Question: And the relative viability ([8]; first compound 0.4 µM)?
Answer: Its relative viability is 0.599.

Question: And the relative viability ([8]; first compound 4 µM)?
Answer: The relative viability was 0.544.

Question: What about the relative viability ([9]; first compound 0.04 µM) of the same molecule?
Answer: Its relative viability is 0.464.

Question: What about the relative viability ([9]; first compound 0.1265 µM) of the same molecule?
Answer: The relative viability was 0.732.

Question: And the relative viability ([9]; first compound 0.4 µM)?
Answer: The relative viability was 0.312.

Question: What about the relative viability ([9]; first compound 4 µM) of the same molecule?
Answer: The relative viability was 0.452.

Question: And the relative viability ([10]; first compound 0.04 µM)?
Answer: Its relative viability is 0.261.

Question: And the relative viability ([10]; first compound 0.1265 µM)?
Answer: The relative viability was 0.274.

Question: What about the relative viability ([10]; first compound 0.4 µM) of the same molecule?
Answer: The relative viability was 0.262.

Question: What about the relative viability ([10]; first compound 4 µM) of the same molecule?
Answer: The relative viability was 0.317.

Question: What about the relative viability ([11]; first compound 0.04 µM) of the same molecule?
Answer: The relative viability was 0.417.

Question: What about the relative viability ([11]; first compound 0.1265 µM) of the same molecule?
Answer: The relative viability was 0.436.

Question: What about the relative viability ([11]; first compound 0.4 µM) of the same molecule?
Answer: Its relative viability is 0.436.

Question: What about the relative viability ([11]; first compound 4 µM) of the same molecule?
Answer: Its relative viability is 0.33.

Question: And the relative viability ([12]; first compound 0.04 µM)?
Answer: Its relative viability is 0.72.

Question: And the relative viability ([12]; first compound 0.1265 µM)?
Answer: Its relative viability is 0.718.

Question: What about the relative viability ([12]; first compound 0.4 µM) of the same molecule?
Answer: Its relative viability is 0.635.

Question: What about the relative viability ([12]; first compound 4 µM) of the same molecule?
Answer: The relative viability was 0.608.

Question: What about the relative viability ([13]; first compound 0.04 µM) of the same molecule?
Answer: Its relative viability is 0.482.

Question: What about the relative viability ([13]; first compound 0.1265 µM) of the same molecule?
Answer: Its relative viability is 0.517.

Question: And the relative viability ([13]; first compound 0.4 µM)?
Answer: The relative viability was 0.549.

Question: What about the relative viability ([13]; first compound 4 µM) of the same molecule?
Answer: The relative viability was 0.517.

Question: What about the relative viability ([14]; first compound 0.04 µM) of the same molecule?
Answer: The relative viability was 0.611.

Question: And the relative viability ([14]; first compound 0.1265 µM)?
Answer: The relative viability was 0.603.

Question: And the relative viability ([14]; first compound 0.4 µM)?
Answer: The relative viability was 0.698.

Question: What about the relative viability ([14]; first compound 4 µM) of the same molecule?
Answer: Its relative viability is 0.586.

Question: What about the relative viability ([15]; first compound 0.04 µM) of the same molecule?
Answer: Its relative viability is 0.701.

Question: What about the relative viability ([15]; first compound 0.1265 µM) of the same molecule?
Answer: Its relative viability is 0.74.

Question: What about the relative viability ([15]; first compound 0.4 µM) of the same molecule?
Answer: Its relative viability is 0.729.

Question: And the relative viability ([15]; first compound 4 µM)?
Answer: Its relative viability is 0.691.

Question: What about the relative viability ([16]; first compound 0.04 µM) of the same molecule?
Answer: The relative viability was 0.412.

Question: And the relative viability ([16]; first compound 0.1265 µM)?
Answer: The relative viability was 0.547.

Question: And the relative viability ([16]; first compound 0.4 µM)?
Answer: The relative viability was 0.368.

Question: And the relative viability ([16]; first compound 4 µM)?
Answer: The relative viability was 0.449.

Question: And the relative viability ([17]; first compound 0.04 µM)?
Answer: Its relative viability is 0.566.

Question: And the relative viability ([17]; first compound 0.1265 µM)?
Answer: The relative viability was 0.488.

Question: And the relative viability ([17]; first compound 0.4 µM)?
Answer: The relative viability was 0.605.

Question: And the relative viability ([17]; first compound 4 µM)?
Answer: Its relative viability is 0.392.

Question: And the relative viability ([18]; first compound 0.04 µM)?
Answer: Its relative viability is 0.913.

Question: What about the relative viability ([18]; first compound 0.1265 µM) of the same molecule?
Answer: Its relative viability is 0.897.

Question: And the relative viability ([18]; first compound 0.4 µM)?
Answer: The relative viability was 0.682.

Question: What about the relative viability ([18]; first compound 4 µM) of the same molecule?
Answer: The relative viability was 0.722.

Question: And the relative viability ([19]; first compound 0.04 µM)?
Answer: The relative viability was 0.792.

Question: And the relative viability ([19]; first compound 0.1265 µM)?
Answer: The relative viability was 0.658.

Question: What about the relative viability ([19]; first compound 0.4 µM) of the same molecule?
Answer: The relative viability was 0.635.

Question: And the relative viability ([19]; first compound 4 µM)?
Answer: The relative viability was 0.757.

Question: And the relative viability ([20]; first compound 0.04 µM)?
Answer: Its relative viability is 0.334.

Question: What about the relative viability ([20]; first compound 0.1265 µM) of the same molecule?
Answer: Its relative viability is 0.321.

Question: What about the relative viability ([20]; first compound 0.4 µM) of the same molecule?
Answer: The relative viability was 0.36.

Question: And the relative viability ([20]; first compound 4 µM)?
Answer: Its relative viability is 0.313.

Question: What about the relative viability ([21]; first compound 0.04 µM) of the same molecule?
Answer: Its relative viability is 0.377.

Question: And the relative viability ([21]; first compound 0.1265 µM)?
Answer: Its relative viability is 0.528.

Question: What about the relative viability ([21]; first compound 0.4 µM) of the same molecule?
Answer: The relative viability was 0.556.

Question: And the relative viability ([21]; first compound 4 µM)?
Answer: The relative viability was 0.574.

Question: And the relative viability ([22]; first compound 0.04 µM)?
Answer: Its relative viability is 0.406.

Question: And the relative viability ([22]; first compound 0.1265 µM)?
Answer: The relative viability was 0.43.

Question: And the relative viability ([22]; first compound 0.4 µM)?
Answer: The relative viability was 0.44.

Question: What about the relative viability ([22]; first compound 4 µM) of the same molecule?
Answer: Its relative viability is 0.412.

Question: What about the relative viability ([23]; first compound 0.04 µM) of the same molecule?
Answer: The relative viability was 0.409.

Question: What about the relative viability ([23]; first compound 0.1265 µM) of the same molecule?
Answer: Its relative viability is 0.387.

Question: What about the relative viability ([23]; first compound 0.4 µM) of the same molecule?
Answer: The relative viability was 0.365.

Question: And the relative viability ([23]; first compound 4 µM)?
Answer: Its relative viability is 0.301.

Question: And the relative viability ([24]; first compound 0.04 µM)?
Answer: Its relative viability is 0.325.

Question: And the relative viability ([24]; first compound 0.1265 µM)?
Answer: Its relative viability is 0.299.

Question: And the relative viability ([24]; first compound 0.4 µM)?
Answer: Its relative viability is 0.302.

Question: And the relative viability ([24]; first compound 4 µM)?
Answer: Its relative viability is 0.331.
